Results taken from PMC5799700, “Screening for PPAR Non-Agonist Ligands Followed by Characterization of a Hit, AM-879, with Additional No-Adipogenic and cdk5-Mediated Phosphorylation Inhibition Properties” (Frontiers in Endocrinology, 2018).
Entries after “also recorded” stand apart in the source; their conditions may differ.

Legend:
PPARγ LBD [1] = target: T1, PPARγ LBD (Homo sapiens, UniProt P37231); test: Thermal shift assay (TSA), SYPRO Orange; assay type: binding; details: PPARγ 4 μM, threefold ligand excess (12 μM)
T1 construct: construction (isoform PPARγ1), encoding AAs 207–477, inserted in pET 28a (+); made in house; host or cells: Escherichia coli BL21 (DE3)
T1 sequence (P37231 207-477 isoform P37231-2): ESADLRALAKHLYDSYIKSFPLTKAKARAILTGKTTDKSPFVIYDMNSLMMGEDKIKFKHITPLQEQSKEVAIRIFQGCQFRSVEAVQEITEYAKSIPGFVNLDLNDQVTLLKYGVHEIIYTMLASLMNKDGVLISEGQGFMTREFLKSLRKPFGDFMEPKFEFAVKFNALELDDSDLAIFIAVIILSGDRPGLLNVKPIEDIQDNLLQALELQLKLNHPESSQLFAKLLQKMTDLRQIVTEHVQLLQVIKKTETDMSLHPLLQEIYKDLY
Experimental: Protein thermal unfolding was monitored by measuring the SYPRO® Orange probe (Life technologies) fluorescence. […] Rosi was used as a PPARγ full agonist control and, dimethyl sulfoxide (DMSO), as apo-PPARγ control. TSA was performed in triplicates, in 96-well PCR microplates (Applied Biosystems—Life Technologies), through an RT-PCR device (7500 Real Time PCR System). Samples were heated at 1°C per min, from 10 to 90°C. Fluorescence intensities were plotted as a function of temperature and, the melting temperature (Tm) of the protein unfolding transition was obtained through a Boltzmann model in Origin Pro 8.1 and using an Excel based worksheet (DSF Analysis v3.0.2, ftp://ftp.sgc.ox.ac.uk/pub/biophysics).

PPARγ LBD [2] = target: T1, PPARγ LBD; test: NanoDSF, intrinsic tryptophan and tyrosine fluorescence; assay type: binding; details: PPARγ 25 μM, ligand 75 μM (3 M excess)
Experimental: Intrinsic tryptophan and tyrosine fluorescence were measured using NT48 device (NanoTemper), as a more sensitive technology to check protein stability in comparison to TSA. […] The initial fluorescence scan of loaded capillaries was performed at 20°C, monitoring emission wavelength at 330 and 350 nm in order to find the optimal signal range. After this step, samples were subjected to a temperature ramp of 1°C/min from 20 to 90°C and fluorescence was constantly monitored. Data were analyzed and Tm was determined using PR. ThermControl software (NanoTemper).

PPARγ LBD [3] = target: T1, PPARγ LBD; test: ANS fluorescence quenching ligand-binding assay; details: PPARγ 1 μM, ANS 10 μM, ligand 0.1-60 μM, Hill model, 25°C; read-out: Kd (dissociation constant) from ANS displacement
Experimental: 8-Anilino-1-naphthalenesulfonic acid fluorescence quenching assay was performed incubating 1 μM of PPARγ with 10 μM of the fluorescent probe ANS for 30 min. Following this, increasing concentrations (0.1–60 μM) of the pre-selected 20 compounds were titrated in protein-ANS solution. […] Fluorescence data were fitted to binding curves using Hill model for dissociation constant (Kd) calculation. All experiments were performed in triplicates and data were processed using the software Origin Pro 8.1.

PPARγ [4] = target: T2, PPARγ (Homo sapiens, UniProt P37231); test: Cell transactivation assay, GAL4-PPARγ-LBD reporter gene; assay type: cell-based; details: 293T cells, up to 0.1 mM
T2 construct: a chimeric protein composed by GAL4-DBD and PPARγ-LBD; expressed in transfected cells; host or cells: 293T (ATCC CRL-3216)
T2 sequence (P37231 238-503 limits assumed): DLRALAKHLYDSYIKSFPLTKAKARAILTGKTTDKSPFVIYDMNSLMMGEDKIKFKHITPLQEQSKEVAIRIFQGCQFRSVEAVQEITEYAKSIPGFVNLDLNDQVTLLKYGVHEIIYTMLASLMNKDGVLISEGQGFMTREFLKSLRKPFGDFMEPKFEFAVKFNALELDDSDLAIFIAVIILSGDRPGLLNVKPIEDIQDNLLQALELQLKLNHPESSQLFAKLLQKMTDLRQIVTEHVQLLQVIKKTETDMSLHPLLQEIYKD
Experimental: (§1) For transactivation assays, cells were seeded in 24-well plates (density of 2.0 × 10^5 cells/well), and transiently transfected with Lipofectamine® 2000 (Invitrogen) and 0.5 μg of the following plasmids: pRL-TK, a transfection control, which express Renilla reniformis luciferase constitutively; pGRE-LUC, which contains responsive element for GAL4 protein followed by reporter gene of firefly luciferase; pBIND-PPARγ, a chimeric protein composed by GAL4-DBD and PPARγ-LBD, under control of the cytomegalovirus promoter (CMV), in a proportion of 1.5 μg DNA:2 μL of Lipofectamine. As negative control, empty BlueScript plasmid was used instead of pBIND-PPARγ. For isotype specificity transactivation assay, cells were seeded in 96-well plates (density of 4.0 × 10^4 cells/well) and transfected with pRL-TK; pGRE-LUC and pBIND-PPARα; and pBIND-PPARβ.
(§2) Four hours after transfection, the culture medium was exchanged to DMEM plus 10% FBS Charcoal stripped broth and 1 μM of each tested compound, Rosi or 1% DMSO was added to each well. In dose–response experiments, concentration of compounds was increased from 0.01 to 0.1 mM. After 24 h of treatment, reporter gene expression was measured with Dual-Luciferase® Reporter (DLR™) Assay System (Promega), according to manufacturer’s instructions in a GloMax-Multi + Detection System (Promega). […]

PPARα = target: T3, PPARα (Homo sapiens, UniProt Q07869); test: Isotype specificity transactivation assay, GAL4-PPARα-LBD reporter gene; assay type: cell-based; details: 293T cells, ligands 1 μM, compared with full agonist
T3 construct: using a GAL4-PPARα-LBD (A) or GAL4-PPARβ-LBD (B) reporter gene; expressed in transfected cells; host or cells: HEK 293T
T3 sequence (Q07869 239-466 limits assumed): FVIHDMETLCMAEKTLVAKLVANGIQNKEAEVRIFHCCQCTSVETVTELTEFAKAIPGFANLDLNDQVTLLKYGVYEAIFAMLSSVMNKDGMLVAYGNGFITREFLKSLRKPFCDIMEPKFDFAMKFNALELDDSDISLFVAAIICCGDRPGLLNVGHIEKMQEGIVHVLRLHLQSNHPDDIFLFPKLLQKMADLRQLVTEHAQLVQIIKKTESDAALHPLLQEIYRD
Experimental: as §1, with “293T (ATCC® CRL-3216™) cells were cultured in Dulbecco’s Modified Eagle’s Medium (DMEM, Gibco®) supplemented with 10% (v/v) fetal bovine serum, 50 U/mL penicillin, and […] streptomycin, at 37°C, and humidified atmosphere of 5% CO2. For” for “For”, “For isotype specificity transactivation assay, cells were seeded in 96-well plates (density of 4.0 × 10^4 cells/well) and transfected with pRL-TK; pGRE-LUC and pBIND-PPARα; and pBIND-PPARβ.” left out
as §2, with “In dose–response experiments, concentration of compounds was increased from 0.01 to 0.1 mM.” left out

PPARβ = target: T4, PPARβ (Homo sapiens, UniProt Q03181); test: Isotype specificity transactivation assay, GAL4-PPARβ-LBD reporter gene; assay type: cell-based; details: 293T cells, ligands 1 μM, compared with full agonist
T4 construct: using a GAL4-PPARα-LBD (A) or GAL4-PPARβ-LBD (B) reporter gene; expressed in transfected cells; host or cells: HEK 293T
T4 sequence (Q03181 211-439 limits assumed): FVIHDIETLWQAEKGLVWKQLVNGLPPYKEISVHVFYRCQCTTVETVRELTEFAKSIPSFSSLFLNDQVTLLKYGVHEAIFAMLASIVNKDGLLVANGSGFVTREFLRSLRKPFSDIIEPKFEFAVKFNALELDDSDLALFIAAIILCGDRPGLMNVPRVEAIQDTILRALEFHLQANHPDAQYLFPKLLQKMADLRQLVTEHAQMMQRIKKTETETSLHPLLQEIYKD
Experimental: as §1, with “293T (ATCC® CRL-3216™) cells were cultured in Dulbecco’s Modified Eagle’s Medium (DMEM, Gibco®) supplemented with 10% (v/v) fetal bovine serum, 50 U/mL penicillin, and […] streptomycin, at 37°C, and humidified atmosphere of 5% CO2. For” for “For”, “For isotype specificity transactivation assay, cells were seeded in 96-well plates (density of 4.0 × 10^4 cells/well) and transfected with pRL-TK; pGRE-LUC and pBIND-PPARα; and pBIND-PPARβ.” left out
as §2, with “In dose–response experiments, concentration of compounds was increased from 0.01 to 0.1 mM.” left out

3T3-L1 cells = test: Adipocyte differentiation assay, Oil Red O; assay type: cell-based; details: 1 μM ligand; for Adipocyte differentiation / adipogenesis (in words): Oil Red O staining
Experimental: 3T3-L1 (ATCC® CRL-3242™) cells were cultured in DMEM (Gibco®) supplemented with 10% (v/v) fetal bovine serum, 50 U/mL penicillin, and […] streptomycin, at 37°C, and humidified atmosphere of 5% CO2. After achieved 70% confluency, cells were trypsinized and seeded in 6-well plates (Corning) at a density of 2.8 × 10^5 cells/well. After 2 days, cells were treated with dexamethasone ([…]) to induce preadipocytes differentiation, and 1 μM of Rosi, 1 μM of AM-879, or 1% DMSO. After treatment, the culture medium was exchanged every 48 h, supplemented with 1 μM of each ligand, for 6 days. In order to measure adipocyte differentiation, fully differentiated 3T3-L1 cells were washed with phosphate-buffered saline (PBS), fixed with 10% formalin (v/v) for 1 h, and then, stained with oil red solution (Oil Red O) (0.3% in isopropanol 60%) for 20 min. After staining, cells were washed with PBS and photographed in Nikon MTS microscope (Nikon). Lipid accumulation was also quantified by Oil Red O absorbance measurement at 520 nm. For this measurement, cells lysis was performed in 200 μL of isopropanol and 4% Igepal solution, and the absorbance of the samples was recorded in a 10-mm cuvette in a spectrophotometer (V-530, Jasco). Data were compared using unpaired t-test.

[5] = test system: PPARγ target genes in 3T3-L1 cells; test: Gene expression analysis (RT-qPCR) in differentiated 3T3-L1 cells; assay type: cell-based; details: 1 μM ligand, vs DMSO
Experimental: Total RNA from differentiated 3T3-L1 cells was extracted by RNeasy kit (Qiagen) and cDNAs were synthesized with High-Capacity cDNA Reverse Transcription Kit (ThermoFischer Scientific). Quantitative PCR reactions were performed with SYBR Real Time PCR master mixes (ThermoFischer Scientific) and 50 ng of cDNA, in a 7500 Real Time PCR system (Applied Biosystems). Relative mRNA expression was determined by the ΔΔ-Ct method normalized to GAPDH levels. The sequences of primers used in this study are presented in Table S2 in Supplementary Material.

[6] = target: T5, CDK5-mediated phosphorylation of PPARγ at serine 273 (Homo sapiens, UniProt P37231); test: In vitro phosphorylation assay (ADP-Glo); assay type: biochemical; details: PPARγ LBD 1.2 μM, 5 M excess of ligand, 50 ng CDK5/p35, ATP 10 μM, 1 h
T5 construct: construction (isoform PPARγ1), encoding AAs 207–477, inserted in pET 28a (+); host or cells: Escherichia coli BL21 (DE3) for PPARγ LBD
T5 sequence (P37231 207-477 isoform P37231-2): T1 sequence (P37231 207-477 isoform P37231-2)
Experimental: Then, protein and ligands were incubated with 50 ng CDK5/p35 (Sigma), for 1 h, at room temperature, in the CDK5/p35 reaction buffer (composition recommended by manufacturer) and in the presence of ATP 10 μM. After reaction, ADP detection was performed by using ADP-Glo™ kinase assay (Promega) following manufacturer’s instructions. Luminesce signal was recorded using GloMax-Multi + Detection System (Promega) microplate luminometer.

PPARγ [7] = target: T2, PPARγ; design: method as in PMID 24075729; details: cited from earlier work

Row | Tm from TSA (PPARγ LBD [1]) | Tm from nanoDSF (PPARγ LBD [2]) | Kd (PPARγ LBD [3]) | PPARα activation (PPARα) | PPARβ activation (PPARβ) | Decrease of CDK5-mediated phosphorylation of PPARγ (Ser 273) [6] | Compound | PPARγ activation (dose-response, in words) (PPARγ [4]) | Lipid accumulation (Oil Red O absorbance at 520 nm) in comparison with DMSO (3T3-L1 cells; 6 days) | Adipocyte differentiation / adipogenesis (in words) (3T3-L1 cells) | Adipoq (Adiponectin) relative expression [5] | Cd36 relative expression [5] | Cebpa relative expression [5] | Cfd (Adipsin) relative expression [5] | Lep (Leptin) relative expression [5] | Lpl relative expression [5] | Pparg relative expression [5] | Effect on PPARγ activation (earlier description as possible antagonist) (PPARγ [7])
1 | 49.83 ± 0.01 °C | 48.8 ± 0.114 °C | 4.5 ± 0.6 µM | none of them activated | none of them activated | 28% | O=C(O)c1ccc(COc2ccccc2C=C2C(=O)c3ccccc3C2=O)cc1 [AM-879, 4-({2-[(1,3-dioxo-1,3-dihydro-2H-inden-2-ylidene)methyl]phenoxy}methyl) benzoic acid] | did not activate PPARγ even at the highest concentration; also recorded: did not present any significant change in PPARγ activation | 1.12 ± 0.13 fold | did not induce a significant increase in adipocyte differentiation | slightly reduced levels | slightly reduced levels | did not alter | slightly reduced levels | did not alter | did not alter | did not alter | reduced the activation of the receptor
2 | 49.4 ± 0.1 °C | 48.0 ± 0.172 °C | 3.3 ± 0.7 µM | none of them activated | none of them activated |  | O=C(O)c1ccc(/C=C/C(=O)c2ccc3ccccc3c2)cc1 [P11] | did not activate PPARγ even at the highest concentration; also recorded: did not present any significant change in PPARγ activation |  |  |  |  |  |  |  |  |  | 
3 |  |  |  |  |  |  | CN(CCOc1ccc(CC2SC(=O)NC2=O)cc1)c1ccccn1 (stereo not drawn) [Rosiglitazone, rosiglitazone, reference compound] |  |  | strongly induced adipogenesis |  |  |  |  |  |  |  | 
